The results in this text go back to patent publication EP4667463A1, “DOMIDE MOLECULAR GLUE DERIVATIVE AND USE THEREOF” (CSPC Megalith Biopharmaceutical Co., Ltd., priority 2023, dated 2024).

As usually defined, the IC50 is the midpoint of a concentration-inhibition curve. By CLint scaled is commonly meant the rate of metabolic loss divided by the concentration. As a reminder, the half-life is how long it takes for the measured level to halve. Usually DC50 stands for the concentration giving 50% degradation.

Series [1] in a line: Metabolic stability in liver microsomes. To be noted: Monkey liver microsomes, after 60 min of incubation.
Description: (§2) The final concentration of the substrate in the incubation system was 1 µM, and the incubation time was 60 min. Sampling was performed at 0 min, 5 min, 15 min, 30 min, and 60 min. The reaction was stopped with glacial acetonitrile containing an internal standard (testosterone-d3 at a concentration of 10 ng/mL). Verapamil was used as a positive control. […] The natural logarithm of the remaining percentage was subjected to linear fitting with time to determine the elimination rate constant (k).
The nature of series [2]: Metabolic stability in liver microsomes. Conditions: Rat liver microsomes, after 60 min of incubation.
Description: as §2
The nature of series [3]: Metabolic stability in liver microsomes. Conditions: Dog liver microsomes, after 60 min of incubation. (In general: Liver microsomes are vesicles of endoplasmic reticulum, rich in cytochrome P450 enzymes.)
Description: as §2
A short description of series [4]: Metabolic stability in liver microsomes. To be noted: Human liver microsomes, after 60 min of incubation.
Description: as §2
For a further series, the system named is HCT-15. Description: Activity in cell strains with high expression of efflux pump proteins, cell viability assay. The class given is cell-based. To be noted: Homo sapiens, HCT-15 cells, 96 h. The method, then: (§1) Three types of cells used for evaluating the activity of the compounds of the present disclosure against a cell strain with high expression of efflux pump proteins were all purchased from Nanjing Cobioer Biosciences Co., Ltd., and all the cells were derived from ATCC (American Type Culture Collection). Various tumor cells were cultured until the cell confluency reached 80%-90%, with cell viability above 90% as determined by trypan blue exclusion. Then, the cells were plated. Specifically, after cell density optimization, 75 µL of each of three cell suspensions of SNU-5, HCT-15, and AsPc-1 cells (3000 cells/well) was inoculated into a BeyoGold™ ultra-low attachment black clear-bottom 96-well plate (Cat. No.: FULA965-24pcs), and the plate was incubated overnight in a cell incubator at 37 °C with carbon dioxide. The next day, after the cells adhered to the wall, 75 µL of the compounds diluted with the corresponding culture media were added. Specifically, the compounds were serially diluted at a 5-fold gradient starting from the highest concentration of 1 µM, with a final DMSO concentration of 1‰, and the test compounds were then added to the cell culture plate. The plate was incubated in an incubator at 37 °C with 5% carbon dioxide for 96 h. Before measurement, the CellTiter-Lumi™ luminescent cell viability assay reagent was equilibrated to room temperature in the dark. Then, 50 µL of the CellTiter-Lumi™ (Cat. No.: C0065XL) cell viability assay reagent was added to each well of the 96-well plate. The plate was shaken in the dark on a shaker at 300 rpm for 10 min to ensure complete cell lysis. After the reaction was completed, the chemiluminescence intensity was measured on a multi-mode microplate reader. The cell viability inhibition rate was determined according to the chemiluminescence intensity. Then, a cell viability curve was generated by Graphpad Prism 8.0, and the IC50 values were calculated. Table 3. Activity of the compounds of the present disclosure in cell strains with high expression of efflux pump proteins (IC50 value)

A further series deals with AsPc-1. Described as above. It counts as cell-based. Conditions: Homo sapiens, ASPC1, AsPc-1 cells, 96 h. The method, then:
as §1

The next series has as its system SNU-5. Described as above. It counts as cell-based. Conditions: Homo sapiens, SNU-5 cells, 96 h. The method, then: as §1
Series [5] is described as follows: in vitro. To be noted: human, liver microsomes.
Description: as §2
Series [6] can be described thus: in vitro. To be noted: mouse, liver microsomes.
Description: as §2
The next series has as its target T1, GSPT1 protein (Homo sapiens, UniProt P15170+Q96SW2).
T1 construct: An HiBiT protein tag was added to the N-terminus of the endogenous GSPT1 protein of HEK293T cells by CRISPR gene editing technology; endogenous in cells; host or cells: HEK293T (CRISPR knock-in HiBiT-GSPT1 cell strain)
Description: GSPT1 protein degradation, Nano-Glo HiBiT assay in HiBiT-GSPT1 HEK293T cells. The class given is cell-based. Conditions: 24 h. The method, then:
This experiment was performed to evaluate the targeting property of the compounds. An HiBiT protein tag was added to the N-terminus of the endogenous GSPT1 protein of HEK293T cells by CRISPR gene editing technology, so as to construct a HiBiT-GSPT1 HEK293T stably transfected cell strain. HiBiT-GSPT1 HEK293T cells were cultured in DMEM containing 10% FBS and 1% PenStrep. When the cell confluency reached 80%-90%, the cells were digested with trypsin, pipetted into single cells, and resuspended in a corresponding culture medium to form a cell suspension. The cells were counted using Cell Countess (NanoEnTek, #Cat. EVE-MC2), and the cell viability was determined by trypan blue exclusion to ensure that the cell viability was above 90%. The cells were plated in a 384-well plate (Corning, #Cat. 3764) at 10,000 cells/40 µL of cell suspension per well, and cultured in an incubator at 37 °C with 5% CO2 overnight. The next day, the test compounds were added to the 384-well plate under conditions of 30 µM highest concentration, 5-fold serial dilution, and 1‰ DMSO. The plate was incubated in the incubator at 37 °C with 5% CO2 for another 24 h. Before measurement, the Nano-Glo HiBiT reagent was equilibrated to room temperature, the LgBiT protein was diluted with the Nano-Glo HiBiT Lytic buffer according to a dilution ratio of 1:100, and the Nano-Glo@HiBiT Lytic substrate was diluted to an appropriate volume according to a ratio of 1:50. After the cell culture plate was equilibrated at room temperature for 10 min, 40 µL of Nano-Glo HiBiT Lytic assay reagent was added to each well. The plate was shaken on a microplate shaker at a rotation speed of 300 rpm for 3 min in the dark. After the reaction was completed, the luminescencevalues were read on BMG PHERASTAR FS (BMG LRBTECH, Cat. No.: PHERAstar FSX), and the DC50 values were calculated using GraphPad Prism 8.0. Table 2. GSPT1 protein degradation
(In general: HiBiT is a short tag that completes a luciferase, so light tracks the accessible tagged protein.)

T1 sequence (P15170 whole entry): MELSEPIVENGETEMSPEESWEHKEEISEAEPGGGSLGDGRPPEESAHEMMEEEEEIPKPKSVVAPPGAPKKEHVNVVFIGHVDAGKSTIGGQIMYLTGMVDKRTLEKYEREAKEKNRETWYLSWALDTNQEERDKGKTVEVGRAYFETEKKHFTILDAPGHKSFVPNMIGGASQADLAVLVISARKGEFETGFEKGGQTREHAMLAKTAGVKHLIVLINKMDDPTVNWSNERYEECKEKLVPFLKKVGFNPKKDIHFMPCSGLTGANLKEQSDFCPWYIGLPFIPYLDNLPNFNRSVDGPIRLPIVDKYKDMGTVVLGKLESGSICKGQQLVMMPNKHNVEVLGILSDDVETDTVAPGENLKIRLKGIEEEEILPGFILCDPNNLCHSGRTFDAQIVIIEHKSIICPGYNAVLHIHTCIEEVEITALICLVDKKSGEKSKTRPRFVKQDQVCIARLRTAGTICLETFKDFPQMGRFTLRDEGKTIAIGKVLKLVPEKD
T1 sequence (Q96SW2 whole entry): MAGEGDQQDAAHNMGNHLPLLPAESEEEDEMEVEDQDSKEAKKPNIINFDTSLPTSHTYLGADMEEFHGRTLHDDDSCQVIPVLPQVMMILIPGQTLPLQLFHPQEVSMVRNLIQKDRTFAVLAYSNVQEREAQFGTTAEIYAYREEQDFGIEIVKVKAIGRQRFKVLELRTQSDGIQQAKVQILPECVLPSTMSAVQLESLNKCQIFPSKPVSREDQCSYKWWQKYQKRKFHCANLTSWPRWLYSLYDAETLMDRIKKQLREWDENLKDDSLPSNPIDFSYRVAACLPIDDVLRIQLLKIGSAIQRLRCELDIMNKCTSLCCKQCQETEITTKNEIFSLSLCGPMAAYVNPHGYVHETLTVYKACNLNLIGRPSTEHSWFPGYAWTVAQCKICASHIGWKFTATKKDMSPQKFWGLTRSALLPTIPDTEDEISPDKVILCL
T1 sequence (Q16531 whole entry partner): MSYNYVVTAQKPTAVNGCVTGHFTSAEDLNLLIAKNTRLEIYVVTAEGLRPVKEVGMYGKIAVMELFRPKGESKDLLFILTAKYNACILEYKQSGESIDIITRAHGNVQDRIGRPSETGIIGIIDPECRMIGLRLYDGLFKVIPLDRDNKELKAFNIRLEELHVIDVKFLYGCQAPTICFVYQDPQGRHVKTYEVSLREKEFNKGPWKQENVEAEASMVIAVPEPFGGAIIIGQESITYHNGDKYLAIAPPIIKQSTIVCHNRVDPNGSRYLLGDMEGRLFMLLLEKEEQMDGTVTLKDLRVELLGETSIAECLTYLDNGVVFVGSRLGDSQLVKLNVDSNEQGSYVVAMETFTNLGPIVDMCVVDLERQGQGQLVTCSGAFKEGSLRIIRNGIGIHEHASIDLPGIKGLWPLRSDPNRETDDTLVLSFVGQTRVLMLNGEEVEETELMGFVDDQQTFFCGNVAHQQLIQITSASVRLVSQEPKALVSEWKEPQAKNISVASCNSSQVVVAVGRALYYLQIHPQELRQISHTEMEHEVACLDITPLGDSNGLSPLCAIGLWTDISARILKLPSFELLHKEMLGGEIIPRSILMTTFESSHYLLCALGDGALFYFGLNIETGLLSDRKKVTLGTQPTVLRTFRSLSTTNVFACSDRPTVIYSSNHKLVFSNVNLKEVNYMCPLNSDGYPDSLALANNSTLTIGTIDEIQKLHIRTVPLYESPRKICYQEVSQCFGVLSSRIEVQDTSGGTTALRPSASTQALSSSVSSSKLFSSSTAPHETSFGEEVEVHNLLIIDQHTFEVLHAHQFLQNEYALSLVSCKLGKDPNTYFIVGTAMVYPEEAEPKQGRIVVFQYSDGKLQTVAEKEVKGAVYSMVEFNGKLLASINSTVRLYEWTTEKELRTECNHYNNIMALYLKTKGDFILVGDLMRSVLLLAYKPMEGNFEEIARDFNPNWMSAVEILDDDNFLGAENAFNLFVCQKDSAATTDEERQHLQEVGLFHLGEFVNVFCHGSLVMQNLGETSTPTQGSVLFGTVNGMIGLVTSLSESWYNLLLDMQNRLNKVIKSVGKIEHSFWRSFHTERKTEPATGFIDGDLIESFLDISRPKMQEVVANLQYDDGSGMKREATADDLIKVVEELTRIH

With `O=C1CCC(N2Cc3cc(CNC(=O)Nc4ccc(CCCOC5CCCNC5)c(Cl)c4)ccc3C2=O)C(=O)N1` (stereo not drawn) [Compound B19], the “Parent drug remaining %” value in series [1] is given as 77.7%; in series [2], 88.1%; in [3] it was 118%; in series [4], 80.5%. Also, the IC50 in the series on HCT-15 is 0.2 to 1 µM; in the series on AsPc-1, 0.05 to 0.2 µM; in the series with SNU-5, below 0.05 µM. Also, the CLint scaled at 1 µM in the series “in vitro [5]” stood at 5.8 mL/min/kg; in the series “in vitro [6]”, 17 mL/min/kg. For the same compound, the values for the half-life at 1 µM in “in vitro [5]” and in the series “in vitro [6]” were 5 h and 5.48 h, respectively. In addition, it took 0.0662 µM to reach half-maximal degradation on GSPT1 protein (DC50).
